Structures can show the parent of a compound that is named as a salt.
Columns and labels:
[1] = target: T1, Phosphatidylinositol 3-kinase catalytic subunit type 3 (Homo sapiens, UniProt Q8NEB9); test: Inhibition of Vps34 (unknown origin) interaction with PIK3 assessed as reduction in autophagy by increasing LC3 level
[2] = Cytotoxicity against RSL3 resistance human HN3 cells assessed as reduction in cell viability; format: functional, cell-based
[3] = target: T1, Phosphatidylinositol 3-kinase catalytic subunit type 3; test: Inhibition of Vps34 (unknown origin)
[4] = target: T1, Phosphatidylinositol 3-kinase catalytic subunit type 3; test: Inhibition of Vps34 in human MCF7-LC3 cells; format: cell-based
[5] = Antitumor activity against human multiple myeloma cells; format: functional
NSCLC = test: Anticancer activity against human NSCLC cells; format: functional, cell-based
[6] = target: Serine/threonine-protein kinase mTOR (Homo sapiens, UniProt P42345); test: Inhibition of mTOR in HEK293 cells; format: cell-based
[7] = target: T2, UDP-glucuronosyltransferase 1A1 (Homo sapiens, UniProt P22309); test: Induction of UGT1A1 (unknown origin) assessed as increase in intracellular acidic autophagy vesicles formation; format: ADME, cell-based
T2 sequence (P22309 whole entry): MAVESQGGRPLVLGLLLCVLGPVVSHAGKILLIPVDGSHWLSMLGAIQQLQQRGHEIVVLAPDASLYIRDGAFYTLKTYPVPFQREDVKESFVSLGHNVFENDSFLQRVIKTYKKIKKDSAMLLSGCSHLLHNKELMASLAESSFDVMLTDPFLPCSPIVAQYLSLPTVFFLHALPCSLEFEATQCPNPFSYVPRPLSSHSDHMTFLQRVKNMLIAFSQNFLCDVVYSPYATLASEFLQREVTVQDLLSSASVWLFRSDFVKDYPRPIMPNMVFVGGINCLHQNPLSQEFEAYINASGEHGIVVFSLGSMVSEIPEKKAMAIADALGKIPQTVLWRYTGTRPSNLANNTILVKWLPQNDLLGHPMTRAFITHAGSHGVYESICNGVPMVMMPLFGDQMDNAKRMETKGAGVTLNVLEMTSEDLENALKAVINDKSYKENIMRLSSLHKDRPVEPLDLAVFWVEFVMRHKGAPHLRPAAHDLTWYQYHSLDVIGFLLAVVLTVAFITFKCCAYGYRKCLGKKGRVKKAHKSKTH

CYP450 = CYP450 (Homo sapiens, UniProt P04798+P05177+P05181+P08684+P10632+P10635+P11509+P11712+P13584+P20813+P20815+P20853+P24462+P24903+P33260+P33261+P51589+P78329+P98187+Q02928+Q08477+Q16678+Q16696+Q5TCH4+Q6VVX0+Q7Z449+Q8TAV3+Q96SQ9+Q9HB55); test: Inhibition of CYP450 (unknown origin); format: ADME, protein assay
[8] = target: T3, DNA polymerase alpha catalytic subunit (Homo sapiens, UniProt P09884); test: Inhibition of human DNA polymerase-alpha (unknown origin)
T3 sequence (P09884 whole entry): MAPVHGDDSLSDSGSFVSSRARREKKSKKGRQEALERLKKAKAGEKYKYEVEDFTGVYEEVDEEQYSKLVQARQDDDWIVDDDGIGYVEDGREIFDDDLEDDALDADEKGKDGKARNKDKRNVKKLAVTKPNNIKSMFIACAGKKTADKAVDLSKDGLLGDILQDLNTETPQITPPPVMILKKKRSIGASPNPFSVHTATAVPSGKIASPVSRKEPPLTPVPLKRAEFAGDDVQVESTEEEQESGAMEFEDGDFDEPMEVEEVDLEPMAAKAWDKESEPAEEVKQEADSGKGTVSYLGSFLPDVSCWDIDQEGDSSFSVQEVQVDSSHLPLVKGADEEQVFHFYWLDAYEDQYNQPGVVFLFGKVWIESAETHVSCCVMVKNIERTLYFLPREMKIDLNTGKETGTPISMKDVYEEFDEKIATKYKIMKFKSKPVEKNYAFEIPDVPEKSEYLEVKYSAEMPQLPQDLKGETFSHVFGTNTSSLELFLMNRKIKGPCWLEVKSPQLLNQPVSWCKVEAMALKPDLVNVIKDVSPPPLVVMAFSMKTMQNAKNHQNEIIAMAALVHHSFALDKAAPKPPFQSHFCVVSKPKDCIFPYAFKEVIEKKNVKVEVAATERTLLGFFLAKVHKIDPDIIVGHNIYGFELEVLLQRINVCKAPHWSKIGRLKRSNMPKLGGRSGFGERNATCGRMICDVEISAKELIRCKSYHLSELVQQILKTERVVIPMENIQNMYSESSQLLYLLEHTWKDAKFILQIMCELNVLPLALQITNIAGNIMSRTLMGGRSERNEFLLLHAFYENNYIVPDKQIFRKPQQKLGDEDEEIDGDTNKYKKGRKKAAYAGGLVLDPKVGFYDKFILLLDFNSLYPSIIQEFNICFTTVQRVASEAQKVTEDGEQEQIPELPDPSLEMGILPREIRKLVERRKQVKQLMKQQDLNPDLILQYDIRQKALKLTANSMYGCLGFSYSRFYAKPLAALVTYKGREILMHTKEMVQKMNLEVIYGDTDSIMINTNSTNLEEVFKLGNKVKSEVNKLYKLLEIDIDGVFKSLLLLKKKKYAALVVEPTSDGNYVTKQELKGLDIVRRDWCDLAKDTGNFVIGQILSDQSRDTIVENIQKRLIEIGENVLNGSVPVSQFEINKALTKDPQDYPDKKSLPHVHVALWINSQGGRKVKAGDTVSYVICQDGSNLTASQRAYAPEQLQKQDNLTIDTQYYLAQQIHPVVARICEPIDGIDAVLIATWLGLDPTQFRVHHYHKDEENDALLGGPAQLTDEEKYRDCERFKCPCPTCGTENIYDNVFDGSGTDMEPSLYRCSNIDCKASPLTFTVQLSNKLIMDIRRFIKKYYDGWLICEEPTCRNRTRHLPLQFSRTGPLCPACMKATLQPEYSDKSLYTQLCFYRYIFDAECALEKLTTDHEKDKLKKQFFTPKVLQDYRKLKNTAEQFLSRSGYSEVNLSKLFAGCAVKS

T1 sequence (Q8NEB9 whole entry): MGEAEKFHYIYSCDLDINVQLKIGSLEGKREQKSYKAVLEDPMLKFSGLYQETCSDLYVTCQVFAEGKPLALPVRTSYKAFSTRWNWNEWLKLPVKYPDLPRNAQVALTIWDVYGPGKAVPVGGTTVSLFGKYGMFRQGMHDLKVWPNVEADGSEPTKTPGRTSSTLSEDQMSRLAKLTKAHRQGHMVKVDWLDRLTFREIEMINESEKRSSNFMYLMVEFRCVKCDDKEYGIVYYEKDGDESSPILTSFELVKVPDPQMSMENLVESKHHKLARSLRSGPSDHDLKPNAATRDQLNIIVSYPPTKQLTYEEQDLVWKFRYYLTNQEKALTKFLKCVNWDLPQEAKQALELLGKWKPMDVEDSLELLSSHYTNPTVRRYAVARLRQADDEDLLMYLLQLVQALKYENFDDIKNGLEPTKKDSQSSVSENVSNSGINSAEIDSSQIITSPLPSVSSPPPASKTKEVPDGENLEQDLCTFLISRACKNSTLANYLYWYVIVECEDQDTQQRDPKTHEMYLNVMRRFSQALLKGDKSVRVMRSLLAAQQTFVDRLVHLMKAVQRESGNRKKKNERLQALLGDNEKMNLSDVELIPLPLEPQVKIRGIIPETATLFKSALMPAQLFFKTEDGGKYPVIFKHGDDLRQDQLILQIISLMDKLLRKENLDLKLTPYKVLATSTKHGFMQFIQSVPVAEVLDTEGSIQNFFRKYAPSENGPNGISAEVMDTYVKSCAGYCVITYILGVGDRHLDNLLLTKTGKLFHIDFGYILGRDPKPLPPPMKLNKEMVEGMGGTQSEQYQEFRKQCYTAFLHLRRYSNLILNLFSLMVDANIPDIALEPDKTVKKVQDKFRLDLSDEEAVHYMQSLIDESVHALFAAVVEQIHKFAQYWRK

Question: With COc1ccc(N(C(=O)CCl)C(C(=O)NCCc2ccccc2)c2cccs2)cc1Cl (stereo not given) as the molecule, how does the IC50 [1] read?
Answer: The IC50 was 0.018 µM.

Question: What about the IC50 [2] of the same molecule?
Answer: The IC50 was 5.8 µM.

Question: What about the IC50 [3] of the same molecule?
Answer: Its IC50 is 0.025 µM.

Question: Which IC50 [4] does the source give for Cc1cc(Nc2cc(Cl)nc(Oc3ccc([N+](=O)[O-])cc3)n2)n[nH]1 here?
Answer: The IC50 was 0.019 µM.

Question: For OCCNCc1ccc(OCc2ccc(F)cc2)c(OCc2ccc(F)cc2)c1, which IC50 [5] is on record?
Answer: Its IC50 is 4.6 µM.

Question: Which IC50 (NSCLC) does the source give for COc1ccc(S(=O)(=O)Nc2cccnc2Nc2ccc(O)cc2)cc1 [ABT-751] here?
Answer: Its IC50 is 1.5 µM.

Question: With CO[C@H]1C[C@@H]2CC[C@@H](C)[C@@](O)(O2)C(=O)C(=O)N2CCCC[C@H]2C(=O)O[C@H]([C@H](C)C[C@@H]2CC[C@@H](OCCO)[C@H](OC)C2)CC(=O)[C@H](C)/C=C(\C)[C@@H](O)[C@@H](OC)C(=O)[C@H](C)C[C@H](C)/C=C/C=C/C=C/1C [EVEROLIMUS] as the molecule, how does the IC50 [6] read?
Answer: Its IC50 is 0.005 to 0.006 µM.

Question: With C=CC(C)(C)c1cc(/C=C/C(=O)c2ccc(O)cc2)c(OC)cc1O [LICOAGROCHACONE A] as the molecule, how does the IC50 [7] read?
Answer: The IC50 was 0.97 µM.

Question: With CCCC(C(=O)OCCN(CC)CC)(c1ccccc1)c1ccccc1 [PROADIFEN HYDROCHLORIDE] as the molecule, how does the IC50 (CYP450) read?
Answer: The IC50 was 19 µM.

Question: With Oc1ccc(/C=C/c2cc(O)cc(O)c2)cc1 [RESVERATROL] as the molecule, how does the IC50 [8] read?
Answer: Its IC50 is 3.3 µM.
